Results reported in PubChem BioAssay AID2060487 (Molecular Pharmacology Branch, DTP, NCI, 2025).
Several values for one entry are separate records, joined by “and”; a condition that tells them apart may be missing. Equal values may be shown once.

Tested on: 997537-175-T-J1-PDC complex spheroid viability
Test: Anticancer human tumor 997537-175-T-J1-PDC patient-derived colon adenocarcinoma cell line growth inhibition [GQUAD]
Details: for viability, T/C: stronger effect = lower value
Excerpt: DNA G-quadruplex Stabilizer Agents in Combinations in Complex Spheroids
A high-throughput screen of multi-cell type tumor spheroids was designed to identify active combinations of DNA G-quadruplex stabilizer agents and targeted small molecules. Complex spheroids include a stromal component modeled by human endothelial cells (HUVEC) and fibroblasts modeled by human mesenchymal stem cells (MSCs). The concentration ranges selected for each drug and investigational agent were based upon clinically achievable concentrations if the clinical Cmax of the agent was known.
Compounds. The drugs and investigational agents: pidnarulex (CX-5461; NSC782164), APTO-253 (NSC789042), BRACO-19 (NSC847499), peposertib (NSC802822), ceralasertib (NSC780249), elimusertib (NSC800525), camonsertib (NSC841442), AZD-1390 (NSC803789), olaparib (NSC753686), talazoparib (NSC767125), ART-558 (NSC835418), sotorasib (NSC818433), MRTX-1133 (NSC836407), SN-38 (NSC673596), topotecan (NSC609699), etoposide (NSC141540), doxorubicin (NSC123127), gemcitabine (NSC613327), 5-fluorouracil (NSC19893), paclitaxel (NSC125973), vemurafenib (NSC761431), panobinostat (NSC761190), R-306465 (JNJ-16241199; NSC773264), adavosertib (NSC754352), TP-3654 (NSC805149), carboplatin (NSC241240), KSQ-4279 (NSC840948), and staurosporine (NSC755774) were obtained from the National Cancer Institute (NCI) Developmental Therapeutics Program Chemical Repository (34). The FDA-approved anticancer drug set is available from the NCI Developmental Therapeutics Program. […] The stock solutions were prepared in dimethyl sulfoxide (DMSO, Sigma-Aldrich, St. Louis, MO, cat. D2650) at 800-fold the tested concentration and stored at -70 degrees C prior to their use. All drugs and investigational agents were tested over a range starting from a high concentration at or near the clinical Cmax and decreasing in half-log increments. If the clinical Cmax for an agent had not been determined, the highest concentration tested was 10 microM.
2.3 Cell Culture. All cells were maintained in an incubator at 37 degrees C and 5% CO2 with 95% humidity. The PDC lines were cultured according to standard operating procedures established by the NCI PDMR. All PDCs were thawed and cultured in Matrigel-coated flasks prepared with a working solution of 1X Ham's F-12 nutrient mix, without supplementation (Invitrogen, cat. 11765054), 100 U/mL penicillin-streptomycin (Invitrogen, cat. 15140122), and 2.5% Matrigel (Corning Inc., cat. 354248) for the first three passages. The 857933-349-R-J2-PDC line was cultured in 6C/Colon 1B media, which includes advanced DMEM/F-12 (Thermo Fisher Scientific, cat. 12634028), 10 mM HEPES (Thermo Fisher Scientific, cat. 15630080), 1X GlutaMAX supplement (Thermo Fisher Scientific, cat. 35050061), 0.1 mg/mL primocin (InvivoGen, cat. ant-pm-2), 10% defined fetal bovine serum, heat inactivated (HyClone Laboratories Inc., cat. SH30070.03HI), 50% L-WRN conditioned media (ATCC, cat. CRL-3276), 1.25 mM N-Acetyl-L-cysteine (Sigma-Aldrich, cat. A9165), 10 mM nicotinamide (Sigma-Aldrich, cat. N0636), 1X B-27 supplement (Thermo Fisher Scientific, cat. 17504044), 1X N-2 supplement (Thermo Fisher Scientific, cat. 17502048), 10 microM Y-27632 dihydrochloride (Tocris Bioscience, cat. 1254), and 50 ng/mL human EGF recombinant protein (Thermo Fisher Scientific, cat. PHG0311). The 485176-168-R4-J1-PDC line was cultured in Panc media, which includes all 6C/Colon 1B media components plus 100 ng/mL human FGF-10 (Thermo Fisher Scientific, cat. 100-26), 500 nM SB-431542 (Selleckchem, cat. S1067), and gastrin (Tocris, cat. 3006).
[…]

[1] = curve of first compound, second compound 0.0316 µM
[2] = curve of first compound, second compound 0.1 µM
[3] = curve of first compound, second compound 0.316 µM
[4] = curve of first compound, second compound 1 µM
[5] = curve of first compound, second compound 3.16 µM
[6] = curve of first compound, second compound 10 µM
[7] = second compound 0.0316 µM, first compound 0.0316 µM
[8] = second compound 0.0316 µM, first compound 0.1 µM
[9] = second compound 0.0316 µM, first compound 0.316 µM
[10] = second compound 0.0316 µM, first compound 1 µM
[11] = second compound 0.0316 µM, first compound 3.16 µM
[12] = second compound 0.0316 µM, first compound 10 µM
[13] = second compound 0.1 µM, first compound 0.0316 µM
[14] = second compound 0.1 µM, first compound 0.1 µM
[15] = second compound 0.1 µM, first compound 0.316 µM
[16] = second compound 0.1 µM, first compound 1 µM
[17] = second compound 0.1 µM, first compound 3.16 µM
[18] = second compound 0.1 µM, first compound 10 µM
[19] = second compound 0.316 µM, first compound 0.0316 µM
[20] = second compound 0.316 µM, first compound 0.1 µM
[21] = second compound 0.316 µM, first compound 0.316 µM
[22] = second compound 0.316 µM, first compound 1 µM
[23] = second compound 0.316 µM, first compound 3.16 µM
[24] = second compound 0.316 µM, first compound 10 µM
[25] = second compound 1 µM, first compound 0.0316 µM
[26] = second compound 1 µM, first compound 0.1 µM
[27] = second compound 1 µM, first compound 0.316 µM
[28] = second compound 1 µM, first compound 1 µM
[29] = second compound 1 µM, first compound 3.16 µM
[30] = second compound 1 µM, first compound 10 µM
[31] = second compound 3.16 µM, first compound 0.0316 µM
[32] = second compound 3.16 µM, first compound 0.1 µM
[33] = second compound 3.16 µM, first compound 0.316 µM
[34] = second compound 3.16 µM, first compound 1 µM
[35] = second compound 3.16 µM, first compound 3.16 µM
[36] = second compound 3.16 µM, first compound 10 µM
[37] = second compound 10 µM, first compound 0.0316 µM
[38] = second compound 10 µM, first compound 0.1 µM
[39] = second compound 10 µM, first compound 0.316 µM
[40] = second compound 10 µM, first compound 1 µM
[41] = second compound 10 µM, first compound 3.16 µM
[42] = second compound 10 µM, first compound 10 µM
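Further: spheroids exposed to the agents for 7 days.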
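Wherever viability, T/C is given: 100% = DMSO vehicle control viability.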

## O=C(NO)c1cnc(N2CCN(S(=O)(=O)c3ccc4ccccc4c3)CC2)nc1 + CN(C)c1ccc(Nc2c3ccc(NC(=O)CCN4CCCC4)cc3nc3cc(NC(=O)CCN4CCCC4)ccc23)cc1
[1]
  IC50: 2410 nM
[2]
  IC50: 1440 nM
[3]
  IC50: 2040 nM
[4]
  IC50: 1530 nM
[5]
  IC50: 1610 nM
[6]
  IC50: 2120 nM
[7]
  viability, T/C: 96%
[8]
  viability, T/C: 88.2%
[9]
  viability, T/C: 105%
[10]
  viability, T/C: 76.5%
[11]
  viability, T/C: 41.6%
[12]
  viability, T/C: 0.32%
[13]
  viability, T/C: 112%
[14]
  viability, T/C: 90.9%
[15]
  viability, T/C: 91%
[16]
  viability, T/C: 66.8%
[17]
  viability, T/C: 18%
[18]
  viability, T/C: 0.22%
[19]
  viability, T/C: 94.3%
[20]
  viability, T/C: 97.8%
[21]
  viability, T/C: 82.1%
[22]
  viability, T/C: 82.4%
[23]
  viability, T/C: 30.8%
[24]
  viability, T/C: 0.23%
[25]
  viability, T/C: 69.8%
[26]
  viability, T/C: 86.4%
[27]
  viability, T/C: 98.9%
[28]
  viability, T/C: 77.8%
[29]
  viability, T/C: 3.02%
[30]
  viability, T/C: 0.59%
[31]
  viability, T/C: 63.6%
[32]
  viability, T/C: 105%
[33]
  viability, T/C: 105%
[34]
  viability, T/C: 84.1%
[35]
  viability, T/C: 1.75%
[36]
  viability, T/C: 0.47%
[37]
  viability, T/C: 83.4%
[38]
  viability, T/C: 90%
[39]
  viability, T/C: 95.6%
[40]
  viability, T/C: 79%
[41]
  viability, T/C: 34.1%
[42]
  viability, T/C: 0.44%

## CC(C)n1c(=O)n(C)c2cnc3cc(F)c(-c4ccc(OCCCN5CCCCC5)nc4)cc3c21 + Cc1cnc(CNC(=O)c2c(=O)c3ccc(N4CCCN(C)CC4)nc3n3c2sc2ccccc23)cn1
[1]
  IC50: > 10000 nM
[2]
  IC50: > 10000 nM
[3]
  IC50: > 10000 nM
[4]
  IC50: > 10000 nM
[5]
  IC50: > 10000 nM
[6]
  IC50: > 10000 nM
[7]
  viability, T/C: 112%
[8]
  viability, T/C: 91.3%
[9]
  viability, T/C: 104%
[10]
  viability, T/C: 82.3%
[11]
  viability, T/C: 91.9%
[12]
  viability, T/C: 92.5%
[13]
  viability, T/C: 95%
[14]
  viability, T/C: 95.9%
[15]
  viability, T/C: 91.5%
[16]
  viability, T/C: 82.4%
[17]
  viability, T/C: 82.6%
[18]
  viability, T/C: 90.9%
[19]
  viability, T/C: 101%
[20]
  viability, T/C: 74%
[21]
  viability, T/C: 101%
[22]
  viability, T/C: 84.8%
[23]
  viability, T/C: 108%
[24]
  viability, T/C: 93.3%
[25]
  viability, T/C: 95.6%
[26]
  viability, T/C: 113%
[27]
  viability, T/C: 111%
[28]
  viability, T/C: 80%
[29]
  viability, T/C: 114%
[30]
  viability, T/C: 105%
[31]
  viability, T/C: 87%
[32]
  viability, T/C: 104%
[33]
  viability, T/C: 108%
[34]
  viability, T/C: 105%
[35]
  viability, T/C: 122%
[36]
  viability, T/C: 110%
[37]
  viability, T/C: 87.8%
[38]
  viability, T/C: 93.4%
[39]
  viability, T/C: 106%
[40]
  viability, T/C: 116%
[41]
  viability, T/C: 98.5%
[42]
  viability, T/C: 107%

## Cn1ncnc1[C@H]1c2n[nH]c(=O)c3cc(F)cc(c23)N[C@@H]1c1ccc(F)cc1
Compound 0.000999 µM
  viability, T/C: 91.9% and 91.2% and 104%
Compound 0.00316 µM
  viability, T/C: 89.7% and 92.9% and 86%
Compound 0.00999 µM
  viability, T/C: 107% and 90.8% and 92.9%
Compound 0.0316 µM
  viability, T/C: 72.1% and 87.1% and 89.7%
Compound 0.0999 µM
  viability, T/C: 90.8% and 64% and 84%
Compound 0.316 µM
  viability, T/C: 85.8% and 73.8% and 89%
Curve of compound
  IC50: > 316 nM

## CC1COCCN1c1cc(C2(O)CC3CCC(C2)O3)c2cnn(-c3ccn[nH]3)c2n1 (configuration not stated)
Compound 0.0316 µM
  viability, T/C: 86.8% and 86.6% and 96.4%
Compound 0.1 µM
  viability, T/C: 57.4% and 66.7% (2×)
Compound 0.316 µM
  viability, T/C: 50.3% and 53.8% and 37.7%
Compound 1 µM
  viability, T/C: 51.1% and 54.5% and 70.1%
Compound 3.16 µM
  viability, T/C: 49.2% and 35.5% and 36.5%
Compound 10 µM
  viability, T/C: 44.9% and 33.9% and 48.4%
Curve of compound
  IC50: 345 nM and 701 nM and 282 nM

## C=CC(=O)N1CCN(c2nc(=O)n(-c3c(C)ccnc3C(C)C)c3nc(-c4c(O)cccc4F)c(F)cc23)C(C)C1 (configuration not stated)
Compound 0.0316 µM
  viability, T/C: 72.9% and 96.6% and 86.9%
Compound 0.1 µM
  viability, T/C: 72.7% and 83.5% and 95.8%
Compound 0.316 µM
  viability, T/C: 86.5% and 87.9% and 93.8%
Compound 1 µM
  viability, T/C: 92.2% and 77.4% and 73%
Compound 3.16 µM
  viability, T/C: 95.7% and 79.1% and 71.7%
Compound 10 µM
  viability, T/C: 94.6% and 94.1% and 90%
Curve of compound
  IC50: > 10000 nM

## Cc1cccc(N(C)C(=O)C2C(O)CCN2c2nc(C)cc(C(F)(F)F)c2C#N)c1 (configuration not stated)
Compound 0.0316 µM
  viability, T/C: 107% and 89.4% and 99.3%
Compound 0.1 µM
  viability, T/C: 97.1% and 94.8% and 91.9%
Compound 0.316 µM
  viability, T/C: 97% and 109% and 98%
Compound 1 µM
  viability, T/C: 88.5% and 83.3% and 100%
Compound 3.16 µM
  viability, T/C: 60.2% and 82.8% and 85.9%
Compound 10 µM
  viability, T/C: 89.4% and 74.4% and 90.4%
Curve of compound
  IC50: > 10000 nM
